From patent US11208400B2, “Substituted 6-(1H-pyrazol-1-yl)pyrimidin-4-amine derivatives and uses thereof” (Bayer Aktiengesellschaft, priority 2016, dated 2021)

target: T1, human Npt2a (Homo sapiens, UniProt Q06495); assay: Npt2a activity cell based assay, membrane potential dye, CHO T-REx hNpt2a cells; conditions: doxycycline-induced, depolarization by sodium phosphate influx, average or median values if tested more than once
T1 construct: expressed in transfected cells
T1 sequence (Q06495 1-639): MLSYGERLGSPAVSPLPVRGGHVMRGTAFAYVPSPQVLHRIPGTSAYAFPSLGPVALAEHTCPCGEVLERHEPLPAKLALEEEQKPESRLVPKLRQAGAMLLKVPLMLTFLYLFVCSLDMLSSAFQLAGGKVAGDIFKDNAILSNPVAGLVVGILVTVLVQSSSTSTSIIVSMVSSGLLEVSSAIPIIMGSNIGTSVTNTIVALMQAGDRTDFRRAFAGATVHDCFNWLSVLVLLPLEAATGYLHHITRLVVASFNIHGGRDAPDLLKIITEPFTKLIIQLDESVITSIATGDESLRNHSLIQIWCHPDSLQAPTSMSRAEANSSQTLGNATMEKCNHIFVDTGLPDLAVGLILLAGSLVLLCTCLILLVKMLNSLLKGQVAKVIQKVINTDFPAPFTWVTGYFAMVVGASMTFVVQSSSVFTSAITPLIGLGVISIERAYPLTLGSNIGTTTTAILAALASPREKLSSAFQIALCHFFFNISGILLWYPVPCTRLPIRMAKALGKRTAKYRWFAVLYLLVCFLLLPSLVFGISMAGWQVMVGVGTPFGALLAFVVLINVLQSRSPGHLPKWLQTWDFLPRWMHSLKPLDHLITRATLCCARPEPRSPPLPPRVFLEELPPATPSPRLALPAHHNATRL
Method in brief: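 Doxycycline-induced (0.5 μg/mL, 24 h) CHO T-REx cells were loaded with membrane potential dye in sodium-free NHE buffer (pH 7.4) and exposed to compound (50 μM–1 nM, 5 min, room temperature).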

Compared with `COc1c(Nc2cc(-n3nc(C)cc3C)ncn2)nn(C)c1-c1ccc(F)cc1` [Example 253, 6-(3,5-dimethyl-1H-pyrazol-1-yl)-N-[5-(4-fluorophenyl)-4-methoxy-1-methyl-1H-pyrazol-3-yl]pyrimidin-4-amine], `Cc1cc(C)n(-c2cc(Nc3c(Cl)c(-c4ccc(F)cc4)nn3C)ncn2)n1` [Example 90, N-[4-chloro-3-(4-fluorophenyl)-1-methyl-1H-pyrazol-5-yl]-6-(3,5-dimethyl-1H-pyrazol-1-yl)pyrimidin-4-amine] is 2-fold higher in IC50: 67 nM for the first, 133 nM for the second. The first is the more potent here.

First: Cc1nn(-c2cc(Nc3nn(C)c(-c4ccc(F)cc4)c3C)ncn2)c(C)c1C#N [Example 348, 1-(6-{[5-(4-fluorophenyl)-1,4-dimethyl-1H-pyrazol-3-yl]amino}pyrimidin-4-yl)-3,5-dimethyl-1H-pyrazole-4-carbonitrile]
Second: CCc1c(Nc2cc(-n3nc(C)c(C#N)c3C)ncn2)nn(C)c1-c1ccc(F)cc1 [Example 112, 1-(6-{[4-ethyl-5-(4-fluorophenyl)-1-methyl-1H-pyrazol-3-yl]amino}pyrimidin-4-yl)-3,5-dimethyl-1H-pyrazole-4-carbonitrile]
The IC50 of the first is 4-fold lower: 15 nM for the first, 59.5 nM for the second. The first is the more potent here.

`Cc1nn(-c2cc(Nc3c(C)c(-c4ccc(F)cc4)nn3CC3CC3)ncn2)c(C)c1C(O)C1CC1` (racemic) [Example 405, (±)-cyclopropyl[1-(6-{[1-(cyclopropylmethyl)-3-(4-fluorophenyl)-4-methyl-1H-pyrazol-5-yl]amino}pyrimidin-4-yl)-3,5-dimethyl-1H-pyrazol-4-yl]methanol] and `Cc1nn(-c2cc(Nc3c(C)c(-c4ccc(F)cc4)nn3CC3CC3)ncn2)c(C)c1O` [Example 429, 1-(6-{[1-(cyclopropylmethyl)-3-(4-fluorophenyl)-4-methyl-1H-pyrazol-5-yl]amino}pyrimidin-4-yl)-3,5-dimethyl-1H-pyrazol-4-ol] are within 1.5-fold of each other in IC50: 14 nM for the first, 17 nM for the second.

Going from `CCOc1ccc(-c2n[nH]c(Nc3cc(-n4nc(C)cc4C)ncn3)c2Cl)cc1` [Example 39, N-[4-chloro-3-(4-ethoxyphenyl)-1H-pyrazol-5-yl]-6-(3,5-dimethyl-1H-pyrazol-1-yl)pyrimidin-4-amine] to `Cc1cc(C)n(-c2cc(Nc3c(C)c(-c4ccc(Br)cc4)nn3C)ncn2)n1` [Example 260, N-[3-(4-bromophenyl)-1,4-dimethyl-1H-pyrazol-5-yl]-6-(3,5-dimethyl-1H-pyrazol-1-yl)pyrimidin-4-amine], the IC50 rises from 3.2 nM to 140 nM (44-fold).

Going from `CCc1c(Nc2cc(-n3nc(C)c(Cl)c3C)ncn2)nn(CC(F)F)c1-c1ccc(F)cc1` [Example 174, 6-(4-chloro-3,5-dimethyl-1H-pyrazol-1-yl)-N-[1-(2,2-difluoroethyl)-4-ethyl-5-(4-fluorophenyl)-1H-pyrazol-3-yl]pyrimidin-4-amine] to `CCc1c(Nc2cc(-n3nc(C)c(Cl)c3C(F)F)ncn2)nn(C)c1-c1ccc(F)cc1` [Example 270, 6-[4-chloro-5-(difluoromethyl)-3-methyl-1H-pyrazol-1-yl]-N-[4-ethyl-5-(4-fluorophenyl)-1-methyl-1H-pyrazol-3-yl]pyrimidin-4-amine], the IC50 falls from 33 nM to 12 nM (2.8-fold). The second is the more potent here.

`Cc1nn(-c2cc(Nc3c(C)c(-c4ccc(F)cc4)nn3C)ncn2)c(C)c1Cl` [Example 68, 6-(4-chloro-3,5-dimethyl-1H-pyrazol-1-yl)-N-[3-(4-fluorophenyl)-1,4-dimethyl-1H-pyrazol-5-yl]pyrimidin-4-amine] and `Cc1nn(-c2cc(Nc3c(C)c(-c4ccc(F)cc4)nn3C)ncn2)c(C)c1C(F)(F)F` [Example 382, 6-[3,5-dimethyl-4-(trifluoromethyl)-1H-pyrazol-1-yl]-N-[3-(4-fluorophenyl)-1,4-dimethyl-1H-pyrazol-5-yl]pyrimidin-4-amine] are within 1.5-fold of each other in IC50: 31.5 nM for the first, 35 nM for the second.

Going from `CCOC(=O)c1c(C)nn(-c2cc(Nc3c(C)c(-c4ccc(C(F)(F)F)cc4)nn3C)ncn2)c1C` [Example 362, ethyl 1-[6-({1,4-dimethyl-3-[4-(trifluoromethyl)phenyl]-1H-pyrazol-5-yl}amino)pyrimidin-4-yl]-3,5-dimethyl-1H-pyrazole-4-carboxylate] to `CCOC(=O)c1c(C)nn(-c2cc(Nc3c(C)c(-c4ccc(OC(F)(F)F)cc4)nn3C)ncn2)c1C` [Example 361, ethyl 1-[6-({1,4-dimethyl-3-[4-(trifluoromethoxy)phenyl]-1H-pyrazol-5-yl}amino)pyrimidin-4-yl]-3,5-dimethyl-1H-pyrazole-4-carboxylate], the IC50 falls from 220 nM to 31 nM (7.1-fold). The second is the more potent here.

`CCc1c(-c2ccc(F)cc2)nn(C)c1Nc1cc(-n2nc(C)c3ccncc32)ncn1` [Example 206, N-[4-ethyl-3-(4-fluorophenyl)-1-methyl-1H-pyrazol-5-yl]-6-(3-methyl-1H-pyrazolo[3,4-c]pyridin-1-yl)pyrimidin-4-amine] and `CCc1c(-c2ccc(F)cc2)nn(Cc2nnnn2C)c1Nc1cc(-n2nc(C)cc2C)ncn1` [Example 391, 6-(3,5-dimethyl-1H-pyrazol-1-yl)-N-{4-ethyl-3-(4-fluorophenyl)-1-[(1-methyl-1H-tetrazol-5-yl)methyl]-1H-pyrazol-5-yl}pyrimidin-4-amine] are within 1.5-fold of each other in IC50: 9 nM for the first, 13 nM for the second.

Compared with `Cc1nn(-c2cc(Nc3c(Cl)c(-c4ccccc4)nn3C)ncn2)c(C)c1Cl` [Example 80, 6-(4-chloro-3,5-dimethyl-1H-pyrazol-1-yl)-N-(4-chloro-1-methyl-3-phenyl-1H-pyrazol-5-yl)pyrimidin-4-amine], `Cc1nn(-c2cc(Nc3nn(C)c(-c4ccc(F)cc4)c3C3CC3)ncn2)c(C)c1Cl` [Example 42, 6-(4-chloro-3,5-dimethyl-1H-pyrazol-1-yl)-N-[4-cyclopropyl-5-(4-fluorophenyl)-1-methyl-1H-pyrazol-3-yl]pyrimidin-4-amine] is 5.7-fold lower in IC50: 44 nM for the first, 7.67 nM for the second.

Going from `CCc1c(Nc2cc(-n3ncc4c3CCCC4)ncn2)n[nH]c1-c1ccc(F)cc1` [Example 22, N-[4-ethyl-5-(4-fluorophenyl)-1H-pyrazol-3-yl]-6-(4,5,6,7-tetrahydro-1H-indazol-1-yl)pyrimidin-4-amine] to `CCOC(=O)c1c(C)nn(-c2cc(Nc3n[nH]c(-c4ccc(F)cc4)c3C)ncn2)c1C` [Example 60, ethyl 1-(6-{[5-(4-fluorophenyl)-4-methyl-1H-pyrazol-3-yl]amino}pyrimidin-4-yl)-3,5-dimethyl-1H-pyrazole-4-carboxylate], the IC50 falls from 150 nM to 43 nM (3.5-fold).

Going from `Cc1cc(C(F)F)n(-c2cc(Nc3c(C4CC4)c(-c4ccc(F)cc4)nn3C)ncn2)n1` [Example 96, N-[4-cyclopropyl-3-(4-fluorophenyl)-1-methyl-1H-pyrazol-5-yl]-6-[5-(difluoromethyl)-3-methyl-1H-pyrazol-1-yl]pyrimidin-4-amine] to `COCCn1nc(-c2ccc(C(F)F)cc2)c(C)c1Nc1cc(-n2nc(C)cc2C)ncn1` [Example 536, N-{3-[4-(difluoromethyl)phenyl]-1-(2-methoxyethyl)-4-methyl-1H-pyrazol-5-yl}-6-(3,5-dimethyl-1H-pyrazol-1-yl)pyrimidin-4-amine], the IC50 falls from 110 nM to 17 nM (6.5-fold). The second is the more potent here.

First: CCOC(=O)c1c(C)nn(-c2cc(Nc3c(C)c(-c4ccc(C(F)F)cc4)nn3CCOC)ncn2)c1C [Example 546, ethyl 1-[6-({3-[4-(difluoromethyl)phenyl]-1-(2-methoxyethyl)-4-methyl-1H-pyrazol-5-yl}amino)pyrimidin-4-yl]-3,5-dimethyl-1H-pyrazole-4-carboxylate]
Second: Cc1ccc(-c2nn(CC3CC3)c(Nc3cc(-n4nc(C)c(C(C)(C)O)c4C)ncn3)c2C)cc1 [Example 389, 2-[1-(6-{[1-(cyclopropylmethyl)-4-methyl-3-(4-methylphenyl)-1H-pyrazol-5-yl]amino}pyrimidin-4-yl)-3,5-dimethyl-1H-pyrazol-4-yl]propan-2-ol]
The IC50 of the first is 9.3-fold lower: 14 nM for the first, 130 nM for the second. The first is the more potent here.

Compared with `Cc1cc(C)n(-c2cc(Nc3cn(-c4ccc(F)cc4)nc3C)ncn2)n1` [Example 77, 6-(3,5-dimethyl-1H-pyrazol-1-yl)-N-[1-(4-fluorophenyl)-3-methyl-1H-pyrazol-4-yl]pyrimidin-4-amine], `COC(C)c1c(C)nn(-c2cc(Nc3nn(C)c(-c4ccc(F)cc4)c3C)ncn2)c1C` (racemic) [Example 343, (±)-N-[5-(4-fluorophenyl)-1,4-dimethyl-1H-pyrazol-3-yl]-6-{4-[1-methoxyethyl]-3,5-dimethyl-1H-pyrazol-1-yl}pyrimidin-4-amine] is 370-fold lower in IC50: 2230 nM for the first, 6 nM for the second. The second is the more potent here.

First: CCc1c(Nc2cc(-n3nc(C)c(C(=O)N4CCC(C(F)F)C4)c3C)ncn2)nn(C)c1-c1ccc(F)cc1 (stereo not shown) [Example 128, [3-(difluoromethyl)pyrrolidin-1-yl][1-(6-{[4-ethyl-5-(4-fluorophenyl)-1-methyl-1H-pyrazol-3-yl]amino}pyrimidin-4-yl)-3,5-dimethyl-1H-pyrazol-4-yl]methanone]
Second: CCc1c(-c2ccc(F)cc2)nn(CC(F)F)c1Nc1cc(-n2nc(C)c(Cl)c2C(F)F)ncn1 [Example 179, 6-[4-chloro-5-(difluoromethyl)-3-methyl-1H-pyrazol-1-yl]-N-[1-(2,2-difluoroethyl)-4-ethyl-3-(4-fluorophenyl)-1H-pyrazol-5-yl]pyrimidin-4-amine]
The IC50 of the first is 7.6-fold higher: 1300 nM for the first, 170 nM for the second.
